Legend:
[1] = Dissociation constant, pKa of the compound at pH < 5; type: physicochemical
[2] = test system: Huh-7; experiment: Cellular uptake in human HuH7 cells at 1 uM after 2 hrs by fluorescence microscopic analysis; type: ADME, cell-based; settings: huh-7, 2 h
[3] = Drug uptake in human HuH7 cells assessed as localization in cytosol at 1 uM after 2 hrs by fluorescence microscopic analysis; type: ADME, cell-based, Huh-7
[4] = Dissociation constant, pKa of the compound at pH 4.8 to 8.2; type: physicochemical

| Compound | pKa [1] | Drug uptake [2] | Drug uptake [3] | pKa [4] |
| --- | --- | --- | --- | --- |
| Nc1ccc(C#Cc2c3ccccc3c(C#Cc3cn([C@H]4C[C@H](O)[C@@H](CO)O4)c(=O)[nH]c3=O)c3ccccc23)cc1 | 3.9 | – | – | – |
| CCC(CC)Nc1ccc(C#Cc2c3ccccc3c(C#Cc3cn([C@H]4C[C@H](O)[C@@H](CO)O4)c(=O)[nH]c3=O)c3ccccc23)cc1 | 3.7 | – | – | – |
| O=c1[nH]c(=O)n([C@H]2C[C@H](O)[C@@H](CO)O2)cc1C#Cc1c2ccccc2c(C#Cc2ccc(NC3CCCCC3)cc2)c2ccccc12 | 3.9 | – | – | – |
| CN(C)c1ccc(C#Cc2c3ccccc3c(C#Cc3cn([C@H]4C[C@H](O)[C@@H](CO)O4)c(=O)[nH]c3=O)c3ccccc23)cc1 | 3 | – | – | – |

Results, then the compound that gave them:

| pKa [1] | Drug uptake [2] | Drug uptake [3] | pKa [4] | Compound |
| --- | --- | --- | --- | --- |
| 3.7 | Not Active | – | – | CNc1ccc(C#Cc2c3ccccc3c(C#Cc3cn([C@H]4C[C@H](O)[C@@H](CO)O4)c(=O)[nH]c3=O)c3ccccc23)cc1 |
| 3.5 | – | – | – | CCCCNc1ccc(C#Cc2c3ccccc3c(C#Cc3cn([C@H]4C[C@H](O)[C@@H](CO)O4)c(=O)[nH]c3=O)c3ccccc23)cc1 |
| 6.1 | – | Active | 6.1 | CC(C)(C)Nc1ccc(C#Cc2c3ccccc3c(C#Cc3cn([C@H]4C[C@H](O)[C@@H](CO)O4)c(=O)[nH]c3=O)c3ccccc23)cc1 |
